Values quoted from earlier work in US20240309009A1, “Anxiolytic Compounds, Pharmaceutical Compositions, and Methods of Treating Anxiety and Other Disorders” (Miralogx LLC, priority 2022, published 2024).
Read-outs that look alike come from different tables or passages of the source.

Columns and labels:
[1] = unlike ibogaine

For `CN(C)CCc1c[nH]c2ccccc12` [DMT, N,N-Dimethyltryptamine], the duration of effects (inhaled or injected) is given as 5 to 15 min and the duration of effects (orally ingested along with a monoamine oxidase inhibitor (MAOI)) is given as “three”.
For `COc1ccc2c3c([nH]c2c1)CCN(C)CC3` [TBG, Tabernanthalog], the “toxicity compared with ibogaine” value (cell cultures) is listed as “less toxic than ibogaine”, the water solubility [1] is listed as “water-soluble” and the “toxicity compared with ibogaine” value (zebrafish) is listed as “less toxic than ibogaine”. For the same compound, the “formation of new dendrites (branches)” value (rat nerve cells) was “increased formation of new dendrites” and the “formation of new spines on dendrites” value (rat nerve cells) was “new spines on those dendrites”.
